For the assay, the target named is T1, hCES1A (Homo sapiens, UniProt P23141).
T1 sequence (P23141 18-567): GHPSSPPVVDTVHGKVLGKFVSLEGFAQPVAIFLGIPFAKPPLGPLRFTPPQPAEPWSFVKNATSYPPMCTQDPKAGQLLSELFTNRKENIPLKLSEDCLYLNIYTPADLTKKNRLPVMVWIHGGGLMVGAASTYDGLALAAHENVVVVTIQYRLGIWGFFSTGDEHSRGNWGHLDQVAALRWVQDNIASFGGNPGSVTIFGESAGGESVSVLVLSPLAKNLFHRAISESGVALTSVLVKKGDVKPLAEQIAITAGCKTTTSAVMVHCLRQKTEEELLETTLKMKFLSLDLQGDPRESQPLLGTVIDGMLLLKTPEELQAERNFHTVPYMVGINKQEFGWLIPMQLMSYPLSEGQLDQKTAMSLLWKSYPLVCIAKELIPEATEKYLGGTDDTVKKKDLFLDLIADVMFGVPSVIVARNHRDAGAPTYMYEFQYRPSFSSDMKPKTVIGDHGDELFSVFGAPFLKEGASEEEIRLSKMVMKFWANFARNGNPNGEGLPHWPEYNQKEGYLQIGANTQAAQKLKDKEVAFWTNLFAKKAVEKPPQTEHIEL
The assay is described as follows: Co-crystallography with hCES1A. The assay is classed as binding. The conditions noted are these: 1:5 molar ratio. As to the method:
Purified hCES1A incubated with F-3 and F-4 at 1:5 M ratio for 1 h at 18°C. Crystallisation screening was performed using commercially available kit sets using sitting drop vapor diffusion at 16°C. Both diffraction-quality crystals were obtained from the condition containing 14.4% peg8000 (w/v), 0.1M MES 6.4, 0.3M CaAc and 20% glycerol. Crystals were flash cooled in liquid nitrogen after cryoprotection in 25% glycerin. Date was collected on 02U1 at Shanghai Synchrotron Radiation Facility (SSRF). Data images were processed using program HKL2000. ([Otwinowski and Minor, 1997]). Crystal structures were solved using molecular replacement with the Phenix software suite using unbound hces1a (Protein Data Bank [PDB] accession number 1MX1 as the search model. Structure refinement was performed using Phenix. ([Adams et al., 2010]). The program COOT was used for manual rebuilding. ([Emsley and Cowtan, 2004]). Molecular graphics images were generated using CCP4MG. ([McNicholas et al., 2011]). […]
fluorogenic probe. 4 Briefly, the incubation mixtures (0.1 mL) contained Tris-HCl buffer, hPL solution (0.25 μg/mL, final concentration), porcine bile salt (0.1 mg/mL, final concentration) and each inhibitor (with different concentrations). […] The fluorescent signals of hydrolytic product were quantified by using the microplate reader (Spectra Max M4, Austria), with the wavelength of 600 nm and 660 nm for excitation and emission, respectively. […]
OPTS, a known fluorogenic probe, was used as the substrate to assess the residual activities of Notum in the presence of each tested compound. […] After preincubated at 37 °C for 1 min, OPTS was added to initiate the hydrolytic reaction and the multi-mode microplate reader (SpectraMax iD3, Molecular Devices, Austria) was used to analyze the florescence signals of the […]
The F-3, F-4, F-10-bound peptides was analysed using the nanoLC-MS/MS system, respectively.6 The purified hCES1A (150 μg, final content) was co-incubated with the small molecule inhibitor F-3/ F-4/ F-10 (100 μM, final concentration) at 4 °C and 25 °C, respectively, for 4h. […]

Molecules are shown by their SMILES.

As for `O=C(c1ccccc1)C(F)(F)F` [F, 2,2,2-trifluoroacetophenone], the “covalent binding mode at the catalytic triad (Ser221) in co-crystal” value is “failed to result in similar covalent interactions”.

The values above are taken from publication PMC11649397, “The study of halogen effect on the reactivity of the serine-targeting covalent warheads” (Frontiers in Chemistry, 2024).
